Measured values as given in PubChem BioAssay (NCI).
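Five compound concentrations were applied to cells in 96-well plates for 48 hours; endpoints were derived by simple linear interpolation of the resulting dose-response curve. At the GI50, growth is halved. TGI denotes the concentration required for complete inhibition of growth.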

Experiments:
Test in all cases: inhibition of tumour cell growth, NCI panel, 48 h
[1] = system: CAKI-1 renal
[2] = system: NCI-H23 lung
[3] = system: MALME-3M melanoma
[4] = system: NCI-H522 lung
[5] = system: SW-620 colon
[6] = system: HCC-2998 colon
[7] = system: LOX IMVI melanoma
[8] = system: OVCAR-8 ovarian
[9] = system: SK-MEL-28 melanoma
[10] = system: IGROV1 ovarian
[11] = system: MOLT-4 leukemia
[12] = system: HCT-15 colon
[13] = system: SNB-75 CNS
[14] = system: SNB-19 CNS
[15] = system: RXF 393 renal
[16] = system: SK-OV-3 ovarian
[17] = system: SK-MEL-2 melanoma
[18] = system: NCI/ADR-RES ovarian
[19] = system: NCI-H226 lung
[20] = system: PC-3 prostate
[21] = system: MDA-MB-435
[22] = system: M14 melanoma
[23] = system: HT29 colon
[24] = system: A549 NSCLC
[25] = system: UO-31 renal
[26] = system: HL-60(TB) leukemia
[27] = system: UACC-257 melanoma
[28] = system: SN12C renal
[29] = system: HCT-116 colon
[30] = system: UACC-62 melanoma
[31] = system: COLO 205 colon
[32] = system: 786-0 renal
[33] = system: KM12 colon
[34] = system: OVCAR-4 ovarian
[35] = system: MDA-MB-231 breast
[36] = system: K-562 leukemia
[37] = system: ACHN renal
[38] = system: DU-145 prostate
[39] = system: EKVX NSCLC
[40] = system: BT-549 breast
[41] = system: SF-539 CNS
[42] = system: OVCAR-3 ovarian
[43] = system: SF-268 CNS
[44] = system: HOP-62 NSCLC
[45] = system: CCRF-CEM leukemia
[46] = system: RPMI-8226 leukemia
[47] = system: OVCAR-5 ovarian
[48] = system: MDA-N
[49] = system: TK-10 renal
[50] = system: MCF7 breast
[51] = system: SK-MEL-5 melanoma
[52] = system: U251 CNS
[53] = system: HOP-92 NSCLC
[54] = system: T-47D breast
[55] = system: HS 578T breast
[56] = system: A498 renal
[57] = system: NCI-H460 lung
[58] = system: SF-295 CNS

CC(C)(C)OC(=O)NCCC1SC2C=CC1C2 (centres undefined)
TGI [1]: > 100 µM
TGI [2]: > 100 µM
TGI [3]: > 100 µM
TGI [4]: > 100 µM
TGI [5]: > 100 µM
TGI [6]: > 100 µM
TGI [7]: > 100 µM
TGI [8]: > 100 µM
TGI [9]: > 100 µM
TGI [10]: > 100 µM
TGI [11]: > 100 µM
TGI [12]: > 100 µM
TGI [13]: > 100 µM
TGI [14]: > 100 µM
TGI [15]: > 100 µM
TGI [16]: > 100 µM
TGI [17]: > 100 µM
TGI [18]: > 100 µM
TGI [19]: > 100 µM
TGI [20]: > 100 µM
TGI [21]: > 100 µM
TGI [22]: > 100 µM
TGI [23]: > 100 µM
TGI [24]: > 100 µM
TGI [25]: > 100 µM
TGI [26]: > 100 µM
TGI [27]: > 100 µM
TGI [28]: > 100 µM
TGI [29]: > 100 µM
TGI [30]: > 100 µM
TGI [31]: > 100 µM
TGI [32]: > 100 µM
TGI [33]: > 100 µM
TGI [34]: > 100 µM
TGI [35]: > 100 µM
TGI [36]: > 100 µM
TGI [37]: > 100 µM
TGI [38]: > 100 µM
TGI [39]: > 100 µM
TGI [40]: > 100 µM
TGI [41]: > 100 µM
TGI [42]: > 100 µM
TGI [43]: > 100 µM
TGI [44]: > 100 µM
TGI [45]: > 100 µM
TGI [46]: > 100 µM
TGI [47]: > 100 µM
TGI [48]: > 100 µM
TGI [49]: > 100 µM
TGI [50]: > 100 µM
TGI [51]: > 100 µM
TGI [52]: > 100 µM
TGI [53]: > 100 µM
TGI [54]: > 100 µM
TGI [55]: > 100 µM
TGI [56]: > 100 µM
TGI [57]: > 100 µM
TGI [58]: > 100 µM

O=C(c1ccc(Cl)c(Cl)c1)N1CCN(C(=O)c2ccc(Cl)c(Cl)c2)C1=S
GI50 [1]: 14 µM
TGI [1]: 27.1 µM
GI50 [2]: 22 µM
TGI [2]: 43 µM
GI50 [3]: 14.9 µM
TGI [3]: 30.6 µM
GI50 [4]: 6.14 µM
TGI [4]: 25 µM
GI50 [5]: 21.3 µM
TGI [5]: 52.1 µM
GI50 [6]: 19.9 µM
TGI [6]: 42.9 µM
GI50 [7]: 7.63 µM
TGI [7]: 24.2 µM
GI50 [8]: 19 µM
TGI [8]: 34.1 µM
GI50 [9]: 30.6 µM
TGI [9]: 69.8 µM
GI50 [10]: 19.7 µM
TGI [10]: 36.3 µM
GI50 [11]: 15.7 µM
TGI [11]: 36.3 µM
GI50 [12]: 19.6 µM
TGI [12]: 43.7 µM
GI50 [13]: 18.9 µM
TGI [13]: 36.4 µM
GI50 [14]: 21.4 µM
TGI [14]: 40.7 µM
GI50 [15]: 17.8 µM
TGI [15]: 35.8 µM
GI50 [16]: 18.2 µM
TGI [16]: 33.9 µM
GI50 [17]: 18.4 µM
TGI [17]: 33.9 µM
GI50 [18]: 34.4 µM
TGI [18]: > 100 µM
GI50 [19]: 19 µM
TGI [19]: 37.4 µM
GI50 [20]: 16.7 µM
TGI [20]: 31.7 µM
GI50 [21]: 15.4 µM
TGI [21]: 31.3 µM
GI50 [22]: 19.6 µM
TGI [22]: 37.9 µM
GI50 [23]: 24.2 µM
TGI [23]: 53 µM
GI50 [24]: 27.8 µM
TGI [24]: 68.9 µM
GI50 [26]: 12.7 µM
TGI [26]: 31.3 µM
GI50 [27]: 17.3 µM
TGI [27]: 35.6 µM
GI50 [28]: 18.3 µM
TGI [28]: 43.9 µM
GI50 [29]: 18.1 µM
TGI [29]: 32.8 µM
GI50 [30]: 18.1 µM
TGI [30]: 34.4 µM
GI50 [31]: 17.8 µM
TGI [31]: 33.6 µM
GI50 [32]: 7.16 µM
TGI [32]: 20.5 µM
GI50 [33]: 16.1 µM
TGI [33]: 33.1 µM
GI50 [34]: 16.8 µM
TGI [34]: 31.4 µM
GI50 [35]: 18.8 µM
TGI [35]: 33.3 µM
GI50 [36]: 16.3 µM
TGI [36]: 60 µM
GI50 [37]: 19.2 µM
TGI [37]: 34.4 µM
GI50 [38]: 14.7 µM
TGI [38]: 29 µM
GI50 [39]: 20.8 µM
TGI [39]: 38.4 µM
GI50 [40]: 23.6 µM
TGI [40]: 48 µM
GI50 [41]: 15.1 µM
TGI [41]: 29.9 µM
GI50 [42]: 17.1 µM
TGI [42]: 35.2 µM
GI50 [43]: 16.8 µM
TGI [43]: 47.9 µM
GI50 [44]: 17.6 µM
TGI [44]: 42.8 µM
GI50 [45]: 4.47 µM
TGI [45]: 18.7 µM
TGI [46]: 5.6 µM
GI50 [47]: 24.3 µM
TGI [47]: 51.3 µM
GI50 [48]: 18.3 µM
TGI [48]: 38.4 µM
GI50 [49]: 18.5 µM
TGI [49]: 36.5 µM
GI50 [50]: 5.57 µM
TGI [50]: 36.4 µM
GI50 [52]: 16.4 µM
TGI [52]: 29.9 µM
GI50 [53]: 20 µM
TGI [53]: 34.2 µM
GI50 [54]: 17.5 µM
TGI [54]: 73.6 µM
GI50 [55]: 29.1 µM
TGI [55]: > 100 µM
GI50 [56]: 20.2 µM
TGI [56]: 36 µM
GI50 [57]: 22 µM
TGI [57]: 49.4 µM
GI50 [58]: 18.5 µM
TGI [58]: 39.7 µM
